# Assay results published in patent US20250009632A1, “HEIGHT-ADJUSTABLE SPRINKLER” (BTGIN CO., LTD., priority 2021, published 2025).
# Columns and labels:
# S. mutans [1] = assay: Analysis of dental plaque reduction (S. mutans attached to glass tube wall, absorbance at 550 nm); assay type: cell-based, Streptococcus mutans
# Protocol: • 1) A brain heart infusion (BHI) broth (5 ml) containing 1% sucrose was added in 50 ml glass tube, and 50 μl of each of sample extracts by concentrations shown in Table 2 below was added. For a control group, sterilized water was used instead of sample extracts. • 2) S. mutans was inoculated to reach 10^5. • 3) The glass tube was cultured statically in an incubator at 37° C. for 24 hours while tilted at 30°. • 4) After culturing, 5 ml of 0.5 M NaOH solution was added to suspend the cells attached to the wall. • 5) One milliliter of suspension was taken and measured for absorbance at 550 nm. S. mutans strain was cultured statically for 24 hours after inoculation while tilted at 30°. When the culture medium was carefully poured out after the static culture, it was observed that bacteria were attached to the wall of the glass tube (FIG. 1, red arrow). Thereafter, the bacteria were suspended by addition of 0.5 M NaOH, and 1 ml of the suspended solution was measured for absorbance at 550 nm. As a result, there was a reduction in dental plaque from a BTEX-K concentration of 50 μg/ml.
# S. mutans [2] = assay: Amount of organic acid produced in dental plaque (HPLC of S. mutans culture medium); assay type: cell-based, Streptococcus mutans; settings: 48 h culture, high concentration (100 μg/ml)
# Protocol: • 1) To a brain heart infusion (BHI) broth (2 ml), 20 μl of each of sample extracts by concentrations in Table 3 below was added. For a control group, sterilized water was used instead of sample extracts. • 2) S. mutans was inoculated to reach 10^5-10^6. • 3) The cells were cultured in an incubator at 37° C. for 48 hours. • 4) The amount of the acid secreted in the medium was measured using HPLC.
# **HPLC: analyzed by the joint equipment research lab of Dankook University Industry-Academia Cooperation (Citric, pyruvic, succinic, lactic, formic, acetic, propionic, isobutyric, butyric, and isovaleric acid).
# S. mutans strain was inoculated into 2 ml of the brain heart infusion (BHI) liquid medium at a concentration of 1×10^5 CFU/ml, and a predetermined concentration of each sample was injected, followed by culturing for 48 hours. The culture was centrifuged at 13,000 rpm for 5 minutes, and then the supernatant was transferred to a new tube and filtered with a 0.45 μm syringe filter. Thereafter, HPLC analysis was performed. HPLC analysis conditions are as follows. Mobile phase (Isocratic elution): 10 mM potassium phosphate monobasic (pH 3, a phosphoric acid salt)/MeOH=(98/2), Column oven Temp.: 30° C., flow rate: 1 ml/min, wavelength: 220 nm, and injection amount: 10 μl
structure (smiles),measurement,setting,value
CC(C)=CCC[C@](C)(O[C@@H]1O[C@H](CO)[C@@H](O)[C@H](O)[C@H]1O)[C@H]1CC[C@]2(C)[C@@H]1[C@H](O)C[C@@H]1[C@@]3(C)CC[C@H](O)C(C)(C)[C@@H]3CC[C@]12C [ginsenoside compound K],growth of S. mutans strain,"S. mutans [1]; at 100 μg/ml, as seen in the dental plaque reduction experiment",inhibited
same,concentration at which dental plaque reduction was observed,"S. mutans [1]; summary statement, absorbance at 550 nm",20 µg/mL
same,reduction in lactic acid content compared to the control group,"S. mutans [2]; HPLC, p<0.0001",approximately 2 fold
same,HPLC peak at retention time of around 4.6 minutes (lactic acid),S. mutans [2]; vs control,decreased
